Results as given in PubChem BioAssay (NCI).
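1) Cells in 96-well plates. 2) Compound, 48 h, 5 concentrations. 3) Linear interpolation between surrounding doses. 4) Unreached endpoint = highest concentration. GI50 = concentration required for 50% inhibition of growth. TGI marks complete inhibition of growth.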

How the values were obtained:
Test in all cases: DTP human tumour cell line panel, 48 h
MDA-MB-435 = system: MDA-MB-435
NCI-H23 lung = system: NCI-H23 lung
U251 CNS = system: U251 CNS
MALME-3M melanoma = system: MALME-3M melanoma
SNB-19 CNS = system: SNB-19 CNS
K-562 leukemia = system: K-562 leukemia
SN12C renal = system: SN12C renal
RXF 393 renal = system: RXF 393 renal
SF-295 CNS = system: SF-295 CNS
UACC-62 melanoma = system: UACC-62 melanoma

CCOC(=O)C1CCC(=O)N1C(=O)c1ccccc1 (stereo not drawn)
TGI (MDA-MB-435): > 100 µM
TGI (NCI-H23 lung): > 100 µM
TGI (U251 CNS): > 100 µM
TGI (MALME-3M melanoma): > 100 µM
TGI (SNB-19 CNS): > 100 µM
TGI (K-562 leukemia): > 100 µM
TGI (SN12C renal): > 100 µM
TGI (RXF 393 renal): > 100 µM
TGI (SF-295 CNS): > 100 µM
TGI (UACC-62 melanoma): > 100 µM

O=C(N/N=C/c1ccc(Br)cc1)N/N=C/c1ccc(Br)cc1
TGI (MDA-MB-435): 76 µM
TGI (NCI-H23 lung): > 100 µM
TGI (U251 CNS): 18.5 µM
TGI (MALME-3M melanoma): 15.6 µM
TGI (SNB-19 CNS): 16.6 µM
TGI (K-562 leukemia): > 100 µM
TGI (SN12C renal): 17.4 µM
TGI (RXF 393 renal): 40.5 µM
TGI (SF-295 CNS): 19.6 µM
TGI (UACC-62 melanoma): 41.2 µM

C#CCN(Cc1ccc2nc(OC)c(OC)nc2c1)c1cc(OC)c(OC)c(OC)c1
TGI (MDA-MB-435): 74.7 µM
TGI (NCI-H23 lung): 46.2 µM
TGI (U251 CNS): > 80.2 µM
TGI (MALME-3M melanoma): 83.8 µM
TGI (SNB-19 CNS): > 80.9 µM
TGI (K-562 leukemia): > 100 µM
TGI (SN12C renal): 57.2 µM
TGI (RXF 393 renal): > 75.1 µM
TGI (SF-295 CNS): > 100 µM
TGI (UACC-62 melanoma): > 97.2 µM

COc1cc2ccc1OCc1cccc(n1)COc1ccc(cc1OC)C=Nc1ccc(cc1)N=C2
TGI (MDA-MB-435): > 100 µM
TGI (NCI-H23 lung): > 100 µM
TGI (U251 CNS): > 100 µM
TGI (MALME-3M melanoma): > 100 µM
TGI (SNB-19 CNS): > 100 µM
TGI (K-562 leukemia): > 100 µM
TGI (SN12C renal): > 100 µM
TGI (RXF 393 renal): > 100 µM
TGI (SF-295 CNS): > 100 µM
TGI (UACC-62 melanoma): > 100 µM

Cn1c2ccccc2c(=O)c2c(O)cc3c(c21)C=CC1(CCCCC1)O3
TGI (MDA-MB-435): > 10 µM
TGI (NCI-H23 lung): > 10 µM
TGI (U251 CNS): > 10 µM
TGI (MALME-3M melanoma): > 10 µM
TGI (SNB-19 CNS): > 10 µM
TGI (K-562 leukemia): > 10 µM
TGI (SN12C renal): > 10 µM
TGI (RXF 393 renal): > 10 µM
TGI (SF-295 CNS): > 10 µM
TGI (UACC-62 melanoma): > 10 µM

C=C1C(O)CC[C@]2(C)C1C1OC(C)(C)O[C@]13CC(=O)C(C)=C([C@H]1OC(C)(C)OC12)C3(C)C (stereo partly drawn)
TGI (MDA-MB-435): > 100 µM
TGI (NCI-H23 lung): > 100 µM
TGI (U251 CNS): > 100 µM
TGI (MALME-3M melanoma): > 100 µM
TGI (SNB-19 CNS): > 100 µM
TGI (K-562 leukemia): > 100 µM
TGI (SN12C renal): > 100 µM
TGI (RXF 393 renal): > 100 µM
TGI (SF-295 CNS): > 100 µM
TGI (UACC-62 melanoma): > 100 µM

C[C@]12CC[C@@H]3c4cc(I)c(O)cc4CC[C@H]3[C@@H]1CC[C@@H]2O
GI50 (MDA-MB-435): 2.11 µM
TGI (MDA-MB-435): 8.02 µM
TGI (NCI-H23 lung): 25.1 µM
TGI (U251 CNS): 16.8 µM
TGI (MALME-3M melanoma): 28.3 µM
TGI (SNB-19 CNS): 34.9 µM
TGI (K-562 leukemia): 24.2 µM
GI50 (SN12C renal): 6.66 µM
TGI (SN12C renal): 22.2 µM
TGI (RXF 393 renal): 20.1 µM
TGI (SF-295 CNS): 16.4 µM
GI50 (UACC-62 melanoma): 3.63 µM
TGI (UACC-62 melanoma): 14.5 µM

COc1ccc(N(C(=O)Nc2ccc(Cl)c(Cl)c2)C2c3cccn3C(=O)N2c2ccc(Cl)c(Cl)c2)cc1 (stereo not drawn)
TGI (MDA-MB-435): > 100 µM
TGI (NCI-H23 lung): > 100 µM
TGI (U251 CNS): > 100 µM
TGI (MALME-3M melanoma): > 100 µM
TGI (SNB-19 CNS): > 100 µM
TGI (K-562 leukemia): > 100 µM
TGI (SN12C renal): > 100 µM
TGI (RXF 393 renal): > 100 µM
TGI (SF-295 CNS): 94.8 µM
TGI (UACC-62 melanoma): > 100 µM

CCOC(=O)c1nc2cc(C(F)(F)F)ccc2nc1Nc1ccc(C(=O)NC(C(=O)OCC)C(=O)OCC)cc1
TGI (MDA-MB-435): > 100 µM
TGI (NCI-H23 lung): > 100 µM
TGI (U251 CNS): 32 µM
TGI (MALME-3M melanoma): 40.3 µM
TGI (SNB-19 CNS): 55.3 µM
TGI (K-562 leukemia): > 100 µM
TGI (SN12C renal): 47.2 µM
TGI (RXF 393 renal): 28.8 µM
TGI (SF-295 CNS): 30.8 µM
TGI (UACC-62 melanoma): 27.6 µM

C=Cc1ccccc1C1(O)C=CC(OC)(OC)C=C1
TGI (MDA-MB-435): 14 µM
TGI (NCI-H23 lung): 16.2 µM
TGI (U251 CNS): 12.7 µM
TGI (MALME-3M melanoma): 27.8 µM
TGI (SNB-19 CNS): 30.8 µM
TGI (K-562 leukemia): > 100 µM
TGI (SN12C renal): 24.4 µM
TGI (RXF 393 renal): 14.8 µM
TGI (SF-295 CNS): 32.5 µM
TGI (UACC-62 melanoma): 17.6 µM

O=C1NCN(c2ccccc2)C12CCN(CCCN1CCN(CCOC(c3ccc(F)cc3)c3ccc(F)cc3)CC1)CC2
TGI (MDA-MB-435): 3.26 µM
TGI (NCI-H23 lung): 9.69 µM
TGI (U251 CNS): 3.45 µM
TGI (MALME-3M melanoma): 2.68 µM
TGI (SNB-19 CNS): 6.57 µM
TGI (K-562 leukemia): 10.5 µM
TGI (SN12C renal): 4.14 µM
TGI (RXF 393 renal): 2.25 µM
TGI (SF-295 CNS): 3.38 µM
TGI (UACC-62 melanoma): 3.75 µM

COc1cc2c(c(O)c1OC)C(=O)C(Cc1ccc(O)cc1)CO2 (stereo not drawn)
TGI (MDA-MB-435): 7.24 µM
TGI (NCI-H23 lung): > 100 µM
TGI (U251 CNS): > 100 µM
TGI (MALME-3M melanoma): > 100 µM
TGI (SNB-19 CNS): 74.1 µM
TGI (K-562 leukemia): > 100 µM
TGI (SN12C renal): > 100 µM
TGI (RXF 393 renal): 54 µM
TGI (SF-295 CNS): 29.2 µM
TGI (UACC-62 melanoma): > 100 µM

CCCCn1c(-c2ccc([N+](=O)[O-])cc2)cs/c1=N/N=C1\C(=O)Nc2ccc(Br)cc21
TGI (MDA-MB-435): 37.3 µM
TGI (NCI-H23 lung): 33.1 µM
TGI (U251 CNS): 22.9 µM
TGI (MALME-3M melanoma): > 100 µM
TGI (SNB-19 CNS): 69.3 µM
TGI (K-562 leukemia): 73.1 µM
TGI (SN12C renal): 11.4 µM
TGI (RXF 393 renal): 22.5 µM
TGI (SF-295 CNS): 61.2 µM
TGI (UACC-62 melanoma): 76.1 µM

O=c1[nH]c(Nc2cccc(CO)c2)nc2nc[nH]c12
TGI (MDA-MB-435): > 100 µM
TGI (NCI-H23 lung): > 100 µM
TGI (U251 CNS): > 100 µM
TGI (MALME-3M melanoma): > 100 µM
TGI (SNB-19 CNS): > 100 µM
TGI (K-562 leukemia): > 100 µM
TGI (SN12C renal): > 100 µM
TGI (RXF 393 renal): > 100 µM
TGI (SF-295 CNS): > 100 µM
TGI (UACC-62 melanoma): > 100 µM

C=C1c2nc3ccccc3n2C=C(c2ccc(Cl)cc2)N1c1ccc(OC)cc1
TGI (MDA-MB-435): 30.5 µM
TGI (NCI-H23 lung): 22.9 µM
TGI (U251 CNS): 25.4 µM
TGI (MALME-3M melanoma): 13.3 µM
TGI (SNB-19 CNS): 12.7 µM
TGI (K-562 leukemia): > 100 µM
TGI (SN12C renal): 60 µM
TGI (RXF 393 renal): 21.6 µM
TGI (SF-295 CNS): 18.5 µM
TGI (UACC-62 melanoma): > 100 µM

COc1nc(C#CC(C)(C)C)nc(OC)n1
TGI (MDA-MB-435): 84.5 µM
TGI (NCI-H23 lung): 68.5 µM
TGI (U251 CNS): > 100 µM
TGI (MALME-3M melanoma): 46.9 µM
TGI (SNB-19 CNS): > 100 µM
TGI (K-562 leukemia): > 100 µM
TGI (SN12C renal): 79 µM
TGI (RXF 393 renal): > 100 µM
TGI (SF-295 CNS): > 100 µM
TGI (UACC-62 melanoma): 42 µM

O=C1c2ccccc2NC(=S)[C@@H]2CCCN12
TGI (MDA-MB-435): > 100 µM
TGI (NCI-H23 lung): > 100 µM
TGI (U251 CNS): > 100 µM
TGI (MALME-3M melanoma): > 100 µM
TGI (SNB-19 CNS): > 100 µM
TGI (K-562 leukemia): > 100 µM
TGI (SN12C renal): > 100 µM
TGI (RXF 393 renal): > 100 µM
TGI (SF-295 CNS): > 100 µM
TGI (UACC-62 melanoma): > 100 µM
